Source: patent publication US9072703B2 (Ipsen Pharma S.A.S., priority 2008, dated 2015)
Non-standard residues stand in square brackets, D forms with d. No end group written: not given here. *: point of attachment. Myristoyl = CCCCCCCCCCCCCC(=O)*; Ac6c = NC1(C(=O)O)CCCCC1; Nle = CCCC[C@H](N)C(=O)O; Orn = NCCC[C@H](N)C(=O)O; Ac5c = NC1(C(=O)O)CCCC1; Aib = CC(C)(N)C(=O)O

Columns and labels:
[1] = Rat plasma half-life assay; format: in vitro ADME; conditions: 37° C., LC-MS, read-out: Rat Plasma T½ (converted)
Procedure: (§1) B. Human and Rat Plasma Half-Life Assay
(§2) 50 μL was removed at various times, like at 0, 1, 2, 3, 4, 8, 24, 32, 48, 56, 72 hours, mixed with 5 μL formic acid and 150 μL acetonitrile in a microcentrifuge tube, vertexed, and centrifuged for 10 minutes at 10K rpm. The supernatant was transferred to an injection vial and analyzed by LC-MS. The LC-MS system consisted of an API4000 mass spectrometer with an ESI probe. Positive ion mode and full scan detection were used. HPLC separation was carried out on a Luna 3μ C8 (2), 2×30 mm column with a gradient from 90% A to 90% B in 10 minutes at a flow rate of 0.3 ml/min. Buffer A was 1% formic acid in water and buffer B was 1% formic acid acetonitrile.

Sprague Dawley rats = assay: Determination of in vivo insulin secretion in normal rats; design: species or system rat
Procedure: D. Determination of In Vivo Insulin Secretion in Normal Rats
Male Sprague Dawley rats with a body weight of approximately 275-300 g were used as experimental subjects. The day prior to the treatment, right atrial cannulae were implanted via the jugular vein under chlorohydrate. Each cannula was filled with 100 u/ml heparin saline and tied. The rats were fasted for approximately 18 hours prior to dosing with the compound or the vehicle (saline/0.25% BSA). The day of the experiment, aliquots of compound were thawed, brought to room temperature and vortexed thoroughly. A careful check was made for any sign of compound coming out of solution. 10 minutes prior to compound/glucose injection, a 500 μl blood sample was withdrawn and replaced with an equal volume of heparinized saline (10 u/ml). At time 0, a 500 μl blood sample was withdrawn through the cannula. Next, either the vehicle or the appropriate dose of the compound was injected into the cannula and pushed in with the glucose (1 g/kg) or vehicle solution. Finally, 500 μl of volume of heparinized saline (10 u/ml) was used to push in the remaining glucose through the cannula. Additional 500 μl blood samples were withdrawn at 2.5, 5, 10, and 20-minute post-glucose dosing; each immediately followed by a bolus, iv injection of 500 μl heparinized saline (10 u/ml) through the cannula. The plasma was collected from the blood samples by centrifugation, and stored at −20° C. until assay for insulin content.
The in vivo effect of the compound of Example 20 was determined in a separate test under the identical experimental conditions as described above, and numerical values of the total insulin secretion for the compound of Example 20 are summarized in Table 4.

[2] = Human plasma half-life assay; format: in vitro ADME; conditions: 37° C., LC-MS, read-out: Human Plasma T½ (converted)
Procedure: as §1, §2

[3] = target: T1, human recombinant GIP receptor (Homo sapiens, UniProt P48546); assay: In vitro hGIP receptor binding assay
T1 construct: expressed in transfected cells; host or cells: CHO-K1 clonal cells (membrane preparation)
T1 sequence (P48546 22-466): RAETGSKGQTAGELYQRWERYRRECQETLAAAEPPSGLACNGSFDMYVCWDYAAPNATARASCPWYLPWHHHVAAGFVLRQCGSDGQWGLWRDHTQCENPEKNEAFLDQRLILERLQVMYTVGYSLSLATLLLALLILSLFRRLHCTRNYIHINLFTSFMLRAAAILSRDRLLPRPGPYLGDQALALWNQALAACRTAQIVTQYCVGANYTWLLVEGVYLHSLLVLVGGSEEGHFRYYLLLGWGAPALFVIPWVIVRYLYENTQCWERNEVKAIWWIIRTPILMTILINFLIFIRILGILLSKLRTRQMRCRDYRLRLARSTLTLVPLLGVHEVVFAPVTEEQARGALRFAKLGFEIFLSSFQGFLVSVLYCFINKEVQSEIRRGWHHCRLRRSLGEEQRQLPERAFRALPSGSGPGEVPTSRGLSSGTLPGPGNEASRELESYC
Procedure: The final assay volume was 0.5 ml. The incubations were terminated by rapid filtration through GF/C filters (pre-soaked in 0.5% polyethylenimine) using a Brandel filtration manifold. Each tube and filter were then washed three times with 5-ml aliquots of ice-cold buffer.

[4] = Table 3, fasted male Sprague Dawley rats, compound by cannula with glucose 1 g/kg, blood samples to 20 min

| Compound | half-life at 0.1 mg/ml [1] [h] | AUC (total insulin secretion) (Sprague Dawley rats; [4]) | half-life at 0.1 mg/ml [2] [h] | Ki [3] [nM] | AUC (total insulin secretion) (Sprague Dawley rats; Table 4, separate test under identical experimental conditions) |
| --- | --- | --- | --- | --- | --- |
| YAEGTFISDY[Ac5c]IAMDKIHQQDFVNWLLAQKGKKNDWKHNI[Ac5c]Q-OH [Example 1, (A5c^11, 41)hGIP(1-42)-OH] | 2.2 | 304.92 | 11.4 |  |  |
| YAEGTFISDYSI[Aib]MDKIHQQDFVNWLLAQKGKKNDWKHNITQD-NH2 [Example 5, (Aib^13, Asp^43)hGIP(1-43)-NH2] | 1.3 | 196.17 | 5.5 |  |  |
| YAEGTFISDYSI[Aib][Nle]DKIHQQDFVNWLLAQKGKKNDWKHN[Ac5c]TQ-OH [Example 6, (Aib^13, Nle^14, A5c^40)hGIP(1-42)-OH] | 1.9 | 180.31 | 7.8 |  |  |
| YAEGTF[Ac6c]SDYSIAMDKIHQQDFVNWLLAQK[Orn](Myristoyl)KKNDWKHNITQ-OH [Example 19, [A6c^7, Orn^31(N—C(O)—(CH2)12—CH3)]hGIP(1-42)-OH] | 54.6 |  | 6.3 | 18 |  |
| YAEGTFISDYSI[Aib]MDKIHQQDFVNWLLAQKGKKNDWKHN[Ac5c]TQ-OH [Example 7, (Aib^13, A5c^40)hGIP(1-42)-OH] | 1.7 | 176.90 | 7 |  |  |
| CC[C@H](C)[C@H](NC(=O)[C@H](CCCCN)NC(=O)[C@H](CC(=O)O)NC(=O)[C@H](CCSC)NC(=O)[C@H](C)NC(=O)[C@@H](NC(=O)C1(NC(=O)[C@H](Cc2ccc(O)cc2)NC(=O)[C@H](CC(=O)O)NC(=O)[C@H](CO)NC(=O)[C@@H](NC(=O)[C@H](Cc2ccccc2)NC(=O)[C@@H](NC(=O)CNC(=O)[C@H](CCC(=O)O)NC(=O)[C@H](C)NC(=O)[C@@H](N)Cc2ccc(O)cc2)[C@@H](C)O)[C@@H](C)CC)CCCC1)[C@@H](C)CC)C(=O)N[C@@H](Cc1c[nH]cn1)C(=O)N[C@@H](CCC(N)=O)C(=O)N[C@@H](CCC(N)=O)C(=O)N[C@@H](CC(=O)O)C(=O)N[C@@H](Cc1ccccc1)C(=O)N[C@H](C(=O)N[C@@H](CC(N)=O)C(=O)N[C@@H](Cc1c[nH]c2ccccc12)C(=O)N[C@@H](CC(C)C)C(=O)N[C@@H](CC(C)C)C(=O)N[C@@H](C)C(=O)N[C@@H](CCC(N)=O)C(=O)N[C@@H](CCCCN)C(=O)NCC(=O)N[C@@H](CCCCN)C(=O)N[C@@H](CCCCN)C(=O)N[C@@H](CC(N)=O)C(=O)N[C@@H](CC(=O)O)C(=O)N[C@@H](Cc1c[nH]c2ccccc12)C(=O)N[C@@H](CCCCN)C(=O)N[C@@H](Cc1c[nH]cn1)C(=O)N[C@@H](CC(N)=O)C(=O)N[C@H](C(=O)N[C@H](C(=O)N[C@@H](CCC(N)=O)C(=O)N[C@@H](Cc1c[nH]cn1)C(=O)O)[C@@H](C)O)[C@@H](C)CC)C(C)C [Example 3, (A5c^11, His^43)hGIP(1-43)-OH] | 1.9 | 269.83 | 7 |  |  |
| YAEGTFISDY[Ac5c]IAMDKIHQQDFVNWLLAQKGKKNDWKHNITQN-OH [Example 4, (A5c^11, Asn^43)hGIP(1-43)-OH] | 4.1 | 265.11 | 7.2 |  |  |
| Glucose-dependent insulinotropic polypeptide [GIP, reference compound] |  | 114.87 |  |  |  |
| YAEGTFISDY[Ac5c]IAMDKIHQQDFVNWLLAQKGKKNDWKHN[Ac5c]TQ-OH [Example 2, (A5c^11, 40)hGIP(1-42)-OH] | 2.7 | 286.02 | 14.1 |  |  |
| CC[C@H](C)[C@H](NC(=O)[C@H](CCCCN)NC(=O)[C@H](CC(=O)O)NC(=O)C1(NC(=O)[C@H](C)NC(=O)[C@@H](NC(=O)C2(NC(=O)[C@H](Cc3ccc(O)cc3)NC(=O)[C@H](CC(=O)O)NC(=O)[C@H](CO)NC(=O)[C@@H](NC(=O)[C@H](Cc3ccccc3)NC(=O)[C@@H](NC(=O)CNC(=O)[C@H](CCC(=O)O)NC(=O)[C@H](C)NC(=O)[C@@H](N)Cc3ccc(O)cc3)[C@@H](C)O)[C@@H](C)CC)CCCC2)[C@@H](C)CC)CCCC1)C(=O)N[C@@H](Cc1c[nH]cn1)C(=O)N[C@@H](CCC(N)=O)C(=O)N[C@@H](CCC(N)=O)C(=O)N[C@@H](CC(=O)O)C(=O)N[C@@H](Cc1ccccc1)C(=O)N[C@H](C(=O)N[C@@H](CC(N)=O)C(=O)N[C@@H](Cc1c[nH]c2ccccc12)C(=O)N[C@@H](CC(C)C)C(=O)N[C@@H](CC(C)C)C(=O)N[C@@H](C)C(=O)N[C@@H](CCC(N)=O)C(=O)N[C@@H](CCCCN)C(=O)NCC(=O)N[C@@H](CCCCN)C(=O)N[C@@H](CCCCN)C(=O)N[C@@H](CC(N)=O)C(=O)N[C@@H](CC(=O)O)C(=O)N[C@@H](Cc1c[nH]c2ccccc12)C(=O)N[C@@H](CCCCN)C(=O)N[C@@H](Cc1c[nH]cn1)C(=O)N[C@@H](CC(N)=O)C(=O)N[C@H](C(=O)N[C@H](C(=O)N[C@@H](CCC(N)=O)C(=O)N[C@@H](Cc1c[nH]cn1)C(=O)O)[C@@H](C)O)[C@@H](C)CC)C(C)C [Example 20, (A5c^11, 14, His^43)hGIP(1-43)-OH] | 4.9 |  | 7.2 |  | 149.39 |
